Calls of active or inactive are those of the source.
Experiments:
[1] = cytotoxicity in HEK-293T cells, dose response, cytotoxicity control for BCR NF-kB inhibitor project, luminescence, B-cell screen hits (AID 489021); assay type: functional, cell-based;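 further: HEK-293T cells carrying an NF-kB luciferase reporter; cells exposed to compound for about 14 hours before viability readout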
HEK293 = assay: cytotoxicity in HEK293T NF-kB-Luc cells, SAR follow-up, cytotoxicity control for NF-kB activator project, cell-based, resazurin fluorescence (AID 493251); assay type: functional; conditions: Homo sapiens
Phospholipase A2 = Phospholipase A2 (Homo sapiens, UniProt P04054); assay type: functional;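 further: confirmatory dose-response counterscreen on phospholipase A2, testing hits that came from an ultra-high-throughput screen for ATG4B inhibitors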
Phospholipase A2, sequence (P04054 whole entry): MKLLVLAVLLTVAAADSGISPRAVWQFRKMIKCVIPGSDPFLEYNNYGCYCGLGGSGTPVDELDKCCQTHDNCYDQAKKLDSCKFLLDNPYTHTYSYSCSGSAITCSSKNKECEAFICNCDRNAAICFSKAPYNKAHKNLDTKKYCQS

[2] = Shn3 3'UTR reporter inhibitors, dose response, cell-based, Clone20 osteoblasts, firefly luciferase, cherry-picked (AID 624132); assay type: functional;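 further: firefly luciferase luminescence from reporter carrying the Shn3 3'UTR in osteoblasts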
[3] = C. albicans growth with fluconazole, confirmation, fluorescence, retest (AID 2467); assay type: functional, cell-based
[4] = molecular target: T1, Ubiquitin-conjugating enzyme E2 N (Homo sapiens, UniProt P61088); assay type: functional;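 further: Dose-response confirmation in a TR-FRET assay detecting UBC13-driven polyubiquitin chain formation, inhibition measured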
T1 sequence (P61088 whole entry): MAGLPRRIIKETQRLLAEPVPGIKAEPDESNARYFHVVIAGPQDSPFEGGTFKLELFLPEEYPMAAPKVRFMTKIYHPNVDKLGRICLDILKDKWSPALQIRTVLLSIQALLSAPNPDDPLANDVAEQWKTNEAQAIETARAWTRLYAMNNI

Cysteine protease ATG4B = Cysteine protease ATG4B (Homo sapiens, UniProt Q9Y4P1); assay type: functional;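 further: Fluorescence-based dose-response confirmation assay measuring inhibition of ATG4B activity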
Cysteine protease ATG4B, sequence (Q9Y4P1 whole entry): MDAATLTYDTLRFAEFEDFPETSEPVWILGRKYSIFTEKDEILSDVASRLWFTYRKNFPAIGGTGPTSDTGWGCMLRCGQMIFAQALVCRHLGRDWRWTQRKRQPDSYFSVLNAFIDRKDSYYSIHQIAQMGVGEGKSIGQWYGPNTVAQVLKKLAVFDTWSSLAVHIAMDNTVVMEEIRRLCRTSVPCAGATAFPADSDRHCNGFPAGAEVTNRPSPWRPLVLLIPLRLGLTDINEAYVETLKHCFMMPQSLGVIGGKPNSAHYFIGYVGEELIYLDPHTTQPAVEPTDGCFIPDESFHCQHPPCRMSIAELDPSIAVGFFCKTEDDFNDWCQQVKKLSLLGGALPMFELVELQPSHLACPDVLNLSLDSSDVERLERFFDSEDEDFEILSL

[5] = control 3'UTR Renilla luciferase suppression, dose response, counter-screen for Shn3 inhibitor project, cell-based, Clone20-Shn3RL, cherry-picked (AID 624133); assay type: functional
[6] = HepG2 cell cytotoxicity, dose response, cytotoxicity control for Shn3 inhibitor project, CellTiter-Glo, cherry-picked (AID 624134); assay type: functional, cell-based
[7] = NIH-3T3 fibroblast cytotoxicity, dose response, cytotoxicity control, cell-based, fluorescence, Alamar Blue, secondary assay (AID 2327); assay type: functional;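 further: NIH-3T3 mouse fibroblasts cultured with fluconazole at 8 µg/mL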
[8] = molecular target: Short transient receptor potential channel 6 (Mus musculus, UniProt Q61143); assay: TRPC6 inhibition potency of TRPC4 inhibitor analogs, dose response, selectivity assay for selective TRPC4 inhibitor project, HEK293 cells, membrane potential dye, IC50 (AID 492987); assay type: functional, cell-based
[9] = molecular target: Dual specificity protein kinase CLK1 (Homo sapiens, UniProt P49759); assay: CLK1 kinase inhibitors, off-target check, dose response, selectivity assay for Dyrk1A inhibitor project, biochemical, cherry-picked samples (AID 588811)
Dual specificity protein kinase CLK1, sequence (P49759 whole entry): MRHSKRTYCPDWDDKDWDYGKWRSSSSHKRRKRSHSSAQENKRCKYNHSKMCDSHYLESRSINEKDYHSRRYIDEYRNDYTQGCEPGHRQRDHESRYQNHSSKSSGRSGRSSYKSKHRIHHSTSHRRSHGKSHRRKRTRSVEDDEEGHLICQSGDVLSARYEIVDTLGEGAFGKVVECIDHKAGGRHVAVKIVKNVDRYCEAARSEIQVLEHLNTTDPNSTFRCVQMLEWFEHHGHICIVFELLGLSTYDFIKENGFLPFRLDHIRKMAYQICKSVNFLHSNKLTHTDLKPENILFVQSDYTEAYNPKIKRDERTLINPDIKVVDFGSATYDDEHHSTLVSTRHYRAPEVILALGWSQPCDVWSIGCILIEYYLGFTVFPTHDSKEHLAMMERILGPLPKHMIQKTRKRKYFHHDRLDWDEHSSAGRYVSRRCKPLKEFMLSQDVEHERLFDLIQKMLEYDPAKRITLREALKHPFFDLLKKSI

[10] = molecular target: Induced myeloid leukemia cell differentiation protein Mcl-1 (Homo sapiens, UniProt Q07820); assay type: functional
Induced myeloid leukemia cell differentiation protein Mcl-1, sequence (Q07820 whole entry): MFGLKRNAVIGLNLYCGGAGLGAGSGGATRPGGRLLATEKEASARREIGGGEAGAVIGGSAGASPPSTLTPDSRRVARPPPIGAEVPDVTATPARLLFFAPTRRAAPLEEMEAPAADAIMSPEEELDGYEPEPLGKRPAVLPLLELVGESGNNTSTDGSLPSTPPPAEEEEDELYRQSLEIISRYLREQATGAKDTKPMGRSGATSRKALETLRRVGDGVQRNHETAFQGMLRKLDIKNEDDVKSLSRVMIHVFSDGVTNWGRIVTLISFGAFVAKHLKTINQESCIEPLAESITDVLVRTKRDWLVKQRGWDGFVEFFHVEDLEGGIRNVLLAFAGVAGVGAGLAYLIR

[11] = molecular target: Dual specificity tyrosine-phosphorylation-regulated kinase 1A (Rattus norvegicus, UniProt Q63470); assay type: biochemical, Homo sapiens
[12] = molecular target: T2, Microphthalmia-associated transcription factor (Homo sapiens, UniProt O75030); assay: TRPM1 promoter luciferase signal decrease, dose response, MITF inhibitor project, cell-based, SK-MEL-5, cherry-picked, set 3 (AID 493073); assay type: functional
T2 sequence (O75030 whole entry): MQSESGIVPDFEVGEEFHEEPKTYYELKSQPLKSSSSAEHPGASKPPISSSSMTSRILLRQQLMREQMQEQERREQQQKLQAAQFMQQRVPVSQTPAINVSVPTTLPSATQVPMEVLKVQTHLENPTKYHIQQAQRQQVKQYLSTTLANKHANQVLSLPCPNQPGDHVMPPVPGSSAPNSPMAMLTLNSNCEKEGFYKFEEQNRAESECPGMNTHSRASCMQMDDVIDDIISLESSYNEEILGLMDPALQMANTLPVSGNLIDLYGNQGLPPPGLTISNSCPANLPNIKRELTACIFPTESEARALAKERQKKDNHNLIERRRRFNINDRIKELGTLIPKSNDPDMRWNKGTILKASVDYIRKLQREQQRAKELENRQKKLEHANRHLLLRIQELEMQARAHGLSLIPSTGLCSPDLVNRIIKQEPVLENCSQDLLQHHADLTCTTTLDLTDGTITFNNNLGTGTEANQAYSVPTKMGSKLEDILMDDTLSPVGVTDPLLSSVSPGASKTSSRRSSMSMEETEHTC

[13] = molecular target: T3, Heat shock factor protein 1 (Mus musculus, UniProt P38532); assay: inhibition of MG132-induced HSE-luciferase signal, confirmation, cell-based, NIH3T3, luminescence, dose retest (AID 2382); assay type: functional;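 further: NIH3T3 fibroblasts with HSF1-driven luciferase reporter stressed by proteasome inhibitor MG132; luminescence from HSF1-driven luciferase expression after 8 hours of MG132 stress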
T3 sequence (P38532 whole entry): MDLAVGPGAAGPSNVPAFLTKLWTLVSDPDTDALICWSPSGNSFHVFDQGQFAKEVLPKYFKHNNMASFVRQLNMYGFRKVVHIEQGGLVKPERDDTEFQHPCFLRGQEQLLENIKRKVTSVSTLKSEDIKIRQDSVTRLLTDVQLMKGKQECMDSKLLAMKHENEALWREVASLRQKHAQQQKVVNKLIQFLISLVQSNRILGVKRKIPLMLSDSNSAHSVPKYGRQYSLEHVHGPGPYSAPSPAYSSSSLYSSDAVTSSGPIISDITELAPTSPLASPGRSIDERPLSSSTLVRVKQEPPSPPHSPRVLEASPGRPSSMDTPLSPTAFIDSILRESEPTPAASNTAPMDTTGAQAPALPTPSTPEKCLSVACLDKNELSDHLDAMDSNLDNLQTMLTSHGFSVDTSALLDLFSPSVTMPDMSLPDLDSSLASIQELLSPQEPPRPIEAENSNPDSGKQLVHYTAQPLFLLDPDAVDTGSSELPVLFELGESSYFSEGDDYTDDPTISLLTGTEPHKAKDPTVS

[14] = non-specific cell cytotoxicity, dose response, cytotoxicity control for PAX8 inhibitor project, plate reader, dry powder samples (AID 743021); assay type: functional, cell-based
INS1 = assay: beta cell apoptosis inhibitors, cytokine rescue, dose response, luminescence, retest (AID 449756); assay type: functional, cell-based; conditions: Rattus norvegicus;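 further: cell death triggered by IL-1 beta plus TNF-alpha plus IFN-gamma mixture; protective hits raise ATP signal compared with cytokine alone wells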
Paired box protein Pax-8 = Paired box protein Pax-8 (Homo sapiens, UniProt Q06710); assay: inhibitors of PAX8-driven TPO luciferase reporter, dose response, RMG-I cells, cherry-pick (AID 687027); assay type: functional, cell-based;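 further: luciferase reporter driven by Pax8 target thyroperoxidase promoter measured by SteadyGlo luminescence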
Paired box protein Pax-8, sequence (Q06710 whole entry): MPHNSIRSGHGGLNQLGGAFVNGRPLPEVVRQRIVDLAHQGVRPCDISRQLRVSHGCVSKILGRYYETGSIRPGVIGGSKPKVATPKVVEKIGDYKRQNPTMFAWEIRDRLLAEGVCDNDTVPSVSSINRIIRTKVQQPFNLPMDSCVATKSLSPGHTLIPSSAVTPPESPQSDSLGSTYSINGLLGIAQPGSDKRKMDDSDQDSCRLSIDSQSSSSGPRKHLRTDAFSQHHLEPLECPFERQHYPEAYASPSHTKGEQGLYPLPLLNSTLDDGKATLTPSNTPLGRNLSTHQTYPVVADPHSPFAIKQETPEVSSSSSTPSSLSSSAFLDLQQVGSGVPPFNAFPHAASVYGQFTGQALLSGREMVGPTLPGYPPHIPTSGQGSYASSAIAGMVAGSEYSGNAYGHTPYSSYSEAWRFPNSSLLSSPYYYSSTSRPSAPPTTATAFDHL

A-375 = assay: A375 melanoma cell viability reduction, dose response, counter-screen for MITF modulator project, cherry-pick samples, set 2 (AID 540335); assay type: functional, cell-based; conditions: Homo sapiens
Cytochrome P450 2D6 = Cytochrome P450 2D6 (Homo sapiens, UniProt P10635);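 further: CYP2D6 member of a cytochrome P450 panel assay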
Cytochrome P450 2D6, sequence (P10635 whole entry): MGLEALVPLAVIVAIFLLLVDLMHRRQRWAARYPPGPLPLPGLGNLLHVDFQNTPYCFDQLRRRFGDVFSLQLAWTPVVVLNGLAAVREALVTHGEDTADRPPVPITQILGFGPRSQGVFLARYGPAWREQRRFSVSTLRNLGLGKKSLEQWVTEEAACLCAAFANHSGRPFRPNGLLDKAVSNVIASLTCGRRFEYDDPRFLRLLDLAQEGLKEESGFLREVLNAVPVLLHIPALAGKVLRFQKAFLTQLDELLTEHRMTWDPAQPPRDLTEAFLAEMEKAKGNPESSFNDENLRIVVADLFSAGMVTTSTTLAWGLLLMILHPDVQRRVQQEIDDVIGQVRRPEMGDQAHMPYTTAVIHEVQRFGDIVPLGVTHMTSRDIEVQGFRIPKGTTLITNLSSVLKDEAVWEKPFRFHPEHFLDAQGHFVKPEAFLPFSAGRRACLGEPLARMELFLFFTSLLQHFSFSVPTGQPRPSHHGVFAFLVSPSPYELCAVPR

[15] = molecular target: Voltage-gated inwardly rectifying potassium channel KCNH2 (Homo sapiens, UniProt Q12809); conditions: Potency;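 further: confirmatory quantitative high-throughput screen measuring inhibition of hERG channel activity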
Voltage-gated inwardly rectifying potassium channel KCNH2, sequence (Q12809 whole entry): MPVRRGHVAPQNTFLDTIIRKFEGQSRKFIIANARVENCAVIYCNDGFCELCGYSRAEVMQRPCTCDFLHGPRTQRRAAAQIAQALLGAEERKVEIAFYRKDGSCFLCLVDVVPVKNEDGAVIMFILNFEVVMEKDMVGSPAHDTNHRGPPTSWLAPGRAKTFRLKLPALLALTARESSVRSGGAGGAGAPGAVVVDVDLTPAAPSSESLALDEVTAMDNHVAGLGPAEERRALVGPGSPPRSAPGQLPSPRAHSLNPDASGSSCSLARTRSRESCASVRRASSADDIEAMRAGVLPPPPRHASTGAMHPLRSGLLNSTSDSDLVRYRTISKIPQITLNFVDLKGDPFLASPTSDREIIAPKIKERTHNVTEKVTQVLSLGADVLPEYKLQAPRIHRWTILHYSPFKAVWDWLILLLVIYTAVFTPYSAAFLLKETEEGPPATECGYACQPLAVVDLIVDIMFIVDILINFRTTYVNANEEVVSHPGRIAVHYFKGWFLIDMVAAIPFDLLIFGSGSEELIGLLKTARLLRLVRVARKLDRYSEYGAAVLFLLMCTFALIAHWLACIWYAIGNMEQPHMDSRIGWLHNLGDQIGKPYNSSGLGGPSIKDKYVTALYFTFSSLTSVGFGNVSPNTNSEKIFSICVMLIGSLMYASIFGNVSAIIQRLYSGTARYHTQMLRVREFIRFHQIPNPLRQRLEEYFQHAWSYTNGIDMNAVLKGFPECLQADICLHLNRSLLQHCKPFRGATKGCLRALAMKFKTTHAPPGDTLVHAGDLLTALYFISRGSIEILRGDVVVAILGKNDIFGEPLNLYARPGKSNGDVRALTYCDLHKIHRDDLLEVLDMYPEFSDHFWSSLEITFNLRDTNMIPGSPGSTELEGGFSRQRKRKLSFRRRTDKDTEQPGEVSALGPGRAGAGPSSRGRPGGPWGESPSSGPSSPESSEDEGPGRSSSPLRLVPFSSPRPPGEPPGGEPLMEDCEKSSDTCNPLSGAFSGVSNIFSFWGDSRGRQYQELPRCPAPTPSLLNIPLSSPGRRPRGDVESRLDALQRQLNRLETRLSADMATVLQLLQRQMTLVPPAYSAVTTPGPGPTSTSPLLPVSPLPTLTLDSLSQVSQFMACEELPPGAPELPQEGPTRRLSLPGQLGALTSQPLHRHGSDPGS

Cytochrome P450 3A4 = Cytochrome P450 3A4 (Homo sapiens, UniProt P08684);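 further: CYP3A4 tested as one member of a cytochrome P450 panel screen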
Cytochrome P450 3A4, sequence (P08684 whole entry, the tested form may be a part): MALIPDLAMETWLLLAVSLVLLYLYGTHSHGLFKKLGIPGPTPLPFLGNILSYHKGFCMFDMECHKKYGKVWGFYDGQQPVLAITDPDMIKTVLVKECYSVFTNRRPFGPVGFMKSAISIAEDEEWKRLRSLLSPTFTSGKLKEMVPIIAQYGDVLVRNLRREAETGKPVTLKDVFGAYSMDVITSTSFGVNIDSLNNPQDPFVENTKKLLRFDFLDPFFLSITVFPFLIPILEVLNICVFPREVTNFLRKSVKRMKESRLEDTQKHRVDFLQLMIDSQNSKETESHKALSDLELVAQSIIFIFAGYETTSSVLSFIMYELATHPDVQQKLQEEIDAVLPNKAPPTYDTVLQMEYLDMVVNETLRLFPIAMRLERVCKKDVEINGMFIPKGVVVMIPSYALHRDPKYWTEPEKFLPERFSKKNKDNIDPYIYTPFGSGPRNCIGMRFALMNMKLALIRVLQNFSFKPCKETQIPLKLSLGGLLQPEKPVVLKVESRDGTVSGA

CHO = assay: cytotoxicity in TLR9-MyD88 CHO cells, dose response, cytotoxicity control for TLR9-MyD88 binding inhibitor project, cell-based, luminescence (AID 588339); assay type: functional, hamster; conditions: Cricetulus griseus;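 further: CHO cells stably coexpressing TLR9 and MyD88 fusions from primary screen; compound exposure lasted 48 hours before viability readout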
[16] = molecular target: Tyrosyl-DNA phosphodiesterase 2 (Homo sapiens, UniProt O95551); assay: human TDP2 enzyme inhibitors, dose response, biochemical, epi absorbance, IC50 (AID 743297)
Tyrosyl-DNA phosphodiesterase 2, sequence (O95551 whole entry): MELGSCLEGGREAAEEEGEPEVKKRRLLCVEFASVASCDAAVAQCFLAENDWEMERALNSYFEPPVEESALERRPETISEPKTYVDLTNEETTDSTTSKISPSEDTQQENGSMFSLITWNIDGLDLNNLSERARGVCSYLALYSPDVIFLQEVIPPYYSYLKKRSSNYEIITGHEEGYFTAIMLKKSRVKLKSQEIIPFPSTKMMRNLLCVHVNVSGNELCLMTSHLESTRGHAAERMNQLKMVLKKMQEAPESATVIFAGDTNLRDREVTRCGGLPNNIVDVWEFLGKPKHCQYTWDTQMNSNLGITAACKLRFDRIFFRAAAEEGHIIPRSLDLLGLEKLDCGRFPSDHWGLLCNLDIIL

[17] = molecular target: Luciferin 4-monooxygenase (Photinus pyralis, UniProt P08659); assay: firefly luciferase enzyme inhibitors, dose response, biochemical, luminescence (AID 1891)
Luciferin 4-monooxygenase, sequence (P08659 whole entry): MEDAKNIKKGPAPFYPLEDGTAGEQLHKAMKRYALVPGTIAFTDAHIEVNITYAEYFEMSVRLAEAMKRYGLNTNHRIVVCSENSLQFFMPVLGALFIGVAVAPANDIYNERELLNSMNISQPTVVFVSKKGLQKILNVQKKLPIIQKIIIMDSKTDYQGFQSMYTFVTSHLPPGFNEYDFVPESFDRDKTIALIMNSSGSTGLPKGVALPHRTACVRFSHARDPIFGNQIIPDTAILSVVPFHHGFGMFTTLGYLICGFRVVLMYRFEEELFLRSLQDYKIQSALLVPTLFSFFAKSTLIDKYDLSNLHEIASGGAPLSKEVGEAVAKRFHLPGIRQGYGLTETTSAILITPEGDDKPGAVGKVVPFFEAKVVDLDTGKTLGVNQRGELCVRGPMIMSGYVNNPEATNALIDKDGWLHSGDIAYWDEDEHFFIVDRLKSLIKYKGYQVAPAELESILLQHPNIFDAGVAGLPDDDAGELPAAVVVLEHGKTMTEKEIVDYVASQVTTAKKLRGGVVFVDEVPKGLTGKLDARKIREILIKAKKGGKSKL

[18] = Luminescence Cell-Based Dose Response HTS to Identify Inhibitors of 5'UTR Stem-Loop Driven Prion Protein mRNA Translation in H4 Neuroglioblastoma Cells. [Related pubchem assays: 1827 (Project Summary), 1813 (Primary HTS)]; assay type: functional
Hexokinase HKDC1 = molecular target: T4, Hexokinase HKDC1 (Homo sapiens, UniProt Q2TB90); assay: HKDC1 hexokinase inhibitors, SAR follow-up, biochemical, set 2 (AID 588355); assay type: functional
T4 sequence (Q2TB90 whole entry): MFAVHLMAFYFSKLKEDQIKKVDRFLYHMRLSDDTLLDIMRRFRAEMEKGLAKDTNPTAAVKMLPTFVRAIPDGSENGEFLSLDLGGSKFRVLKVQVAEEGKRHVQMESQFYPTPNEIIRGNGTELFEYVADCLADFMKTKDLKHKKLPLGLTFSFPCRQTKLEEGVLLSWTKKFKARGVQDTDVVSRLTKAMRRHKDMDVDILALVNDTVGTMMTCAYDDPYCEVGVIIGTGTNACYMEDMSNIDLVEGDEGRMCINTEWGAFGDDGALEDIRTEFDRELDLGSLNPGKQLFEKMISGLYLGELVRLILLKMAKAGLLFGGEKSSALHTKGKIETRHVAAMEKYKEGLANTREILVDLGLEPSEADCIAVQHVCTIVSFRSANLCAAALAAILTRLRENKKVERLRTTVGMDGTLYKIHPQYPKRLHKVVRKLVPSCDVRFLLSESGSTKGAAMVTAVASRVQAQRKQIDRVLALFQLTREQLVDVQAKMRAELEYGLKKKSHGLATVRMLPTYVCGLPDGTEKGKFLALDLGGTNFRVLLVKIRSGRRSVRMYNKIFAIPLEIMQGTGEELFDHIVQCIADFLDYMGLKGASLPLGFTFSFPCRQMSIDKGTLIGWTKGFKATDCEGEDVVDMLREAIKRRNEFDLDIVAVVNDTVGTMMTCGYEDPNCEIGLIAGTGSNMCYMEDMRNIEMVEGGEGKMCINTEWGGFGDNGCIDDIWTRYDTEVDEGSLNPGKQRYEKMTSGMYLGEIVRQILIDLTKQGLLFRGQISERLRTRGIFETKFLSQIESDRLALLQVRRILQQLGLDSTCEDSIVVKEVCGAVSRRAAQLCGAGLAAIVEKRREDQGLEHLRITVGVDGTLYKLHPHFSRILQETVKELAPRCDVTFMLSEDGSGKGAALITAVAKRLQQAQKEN

[19] = Luminescence Cell-Based Dose Confirmation HTS to Identify Inhibitors of Platelet Dense Granule Release. [Related pubchem assays: 1663 (Primary HTS), 1678 (Summary of Project)]; assay type: functional
[20] = inhibitors of firefly luciferase expression or activity, dose response, H4 neuroglioma cells, luminescence (AID 1990); assay type: functional, cell-based
Hexokinase-1 = molecular target: T5, Hexokinase-1 (Homo sapiens, UniProt P19367); assay: HK1 enzyme inhibition by HKDC1 hits, SAR follow-up, selectivity assay for HKDC1 inhibitor project, biochemical, set 2, resazurin fluorescence coupled readout (AID 588356); assay type: functional
T5 sequence (P19367 whole entry): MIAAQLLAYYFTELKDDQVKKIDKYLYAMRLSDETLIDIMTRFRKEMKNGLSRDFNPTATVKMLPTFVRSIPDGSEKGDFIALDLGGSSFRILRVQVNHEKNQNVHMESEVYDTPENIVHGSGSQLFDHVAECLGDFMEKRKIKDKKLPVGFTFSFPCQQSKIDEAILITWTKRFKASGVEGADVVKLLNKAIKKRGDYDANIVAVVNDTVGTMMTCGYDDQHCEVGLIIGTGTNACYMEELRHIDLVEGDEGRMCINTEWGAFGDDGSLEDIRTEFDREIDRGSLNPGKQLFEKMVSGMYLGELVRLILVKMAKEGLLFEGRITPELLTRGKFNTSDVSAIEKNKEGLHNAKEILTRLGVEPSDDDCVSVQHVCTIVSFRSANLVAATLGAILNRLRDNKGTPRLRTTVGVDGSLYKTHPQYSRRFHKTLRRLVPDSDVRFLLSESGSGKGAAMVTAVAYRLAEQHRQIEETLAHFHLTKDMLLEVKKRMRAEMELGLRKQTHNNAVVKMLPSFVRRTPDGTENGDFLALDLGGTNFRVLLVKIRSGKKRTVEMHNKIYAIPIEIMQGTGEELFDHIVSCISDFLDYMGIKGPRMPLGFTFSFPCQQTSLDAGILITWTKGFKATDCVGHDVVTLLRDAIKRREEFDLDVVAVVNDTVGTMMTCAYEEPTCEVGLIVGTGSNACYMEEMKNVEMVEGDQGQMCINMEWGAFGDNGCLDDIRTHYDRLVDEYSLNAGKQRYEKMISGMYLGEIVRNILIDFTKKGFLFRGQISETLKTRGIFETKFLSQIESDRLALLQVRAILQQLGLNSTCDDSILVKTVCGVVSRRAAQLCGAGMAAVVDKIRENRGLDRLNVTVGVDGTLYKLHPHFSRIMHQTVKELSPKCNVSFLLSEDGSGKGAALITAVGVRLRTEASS

## COc1ccc(-c2nc(CSCC(=O)NCc3ccco3)c(C)o2)cc1
[1]
  IC50: > 80 µM (inactive)
HEK293
  IC50: 67.1 µM (inactive)

## Cc1c(CCOC(=O)C23CC4(C)CC(C)(CC(C)(C4)C2)C3)sc[n+]1CC(=O)c1ccccc1
Phospholipase A2
  IC50: 8.77 µM (active)
[2]
  AC50: 5.84 µM (active)
[3]
  EC50: > 38 µM (not active)
[4]
  IC50: > 20 µM (inactive)
Cysteine protease ATG4B
  IC50: 8.57 µM (active)
[5]
  AC50: 7.21 µM (active)
[6]
  AC50: 23.6 µM (active)
[7]
  EC50: > 150 µM (inactive)

## Cc1cc(N2CCNCC2)nc2ccccc12
[8]
  IC50: 20.4 µM (active)

## O=C(Nc1nc(-c2ccncc2)cs1)c1ccco1
[9]
  AC50: 2.56 µM (active)
[10]
  IC50: 4.34 µM (active)
[11]
  AC50: 1.92 µM (active)

## O=C(CCl)N(c1ccccc1)C1CCCCC1
[12]
  AC50: 4.51 µM (active)
[13]
  EC50: 4.98 µM (active)
[14]
  AC50: 10.7 µM (active)
INS1
  AC50: 4.88 µM (active)
Paired box protein Pax-8
  AC50: 3.98 µM (active)
A-375
  AC50: 7.54 µM (active)

## NC(=O)CNCCC(c1ccccc1)c1ccccc1
Cytochrome P450 2D6
  AC50: 20 µM (inconclusive)
[15]
  AC50: 15.8 µM (inconclusive)
Cytochrome P450 3A4
  AC50: 2 µM (inconclusive)

## N#Cc1sc2nc(-c3ccccc3)cc(-c3ccco3)c2c1N
CHO
  IC50: 40.7 µM (inactive)
[16]
  IC50: > 128 µM (inactive)

## COc1cc2c(cc1OC)-c1cc(Nc3ccccc3Br)nc(=O)n1CC2
[17]
  EC50: > 112 µM (not active)
[18]
  EC50: 13.4 µM (active)
Hexokinase HKDC1
  IC50: > 80 µM (inactive)
[19]
  EC50: 0.115 µM (active)
[20]
  EC50: 26.2 µM (active)
Hexokinase-1
  IC50: > 80 µM (inactive)

Source: ChEMBL document CHEMBL1201862, “PubChem BioAssay data set” (2004)
